Our source for the EC50 values is BindingDB's records for doi:10.1016/j.ejmech.2018.09.013 (Wuhan Institute of Technology, 2018).

Experiment [1] is described as follows: Inhibition of wild-type HIV1 3B reverse transcriptase infected in human MT4 cells assessed as protection against virus-induced cytopathic effect.
A short description of experiment [2]: Inhibition of HIV1 RES056 reverse transcriptase K103N/Y181C double mutant infected in human MT4 cells assessed as protection against virus-induced cytopathic effect. In general terms: Damage to the host cells serves as the signal in cytopathic effect assays.
The nature of experiment [3]: Inhibition of HIV1 reverse transcriptase K103N/Y188C double mutant infected in human MT4 cells assessed as protection against virus-induced cytopathic effect measured 5 days post infection by MTT assay.
Experiment [4] can be described thus: Inhibition of wild-type HIV1 3B reverse transcriptase infected in human MT4 cells assessed as protection against virus-induced cytopathic effect measured 5 days post infection by MTT assay.
A short description of experiment [5]: Inhibition of HIV1 reverse transcriptase K103N mutant infected in human MT4 cells assessed as protection against virus-induced cytopathic effect measured 5 days post infection by MTT assay.
Experiment [6] can be described thus: Inhibition of HIV1 reverse transcriptase E138K mutant infected in human MT4 cells assessed as protection against virus-induced cytopathic effect measured 5 days post infection by MTT assay.

pEC50: −log10 of the molar value.

The term pEC50 denotes −log10 of the EC50, conventionally taken in molar units. For `Cc1cc(C(C#N)c2ccccc2F)nc(Nc2ccc(C#N)cc2)n1` (stereo unspecified), the pEC50 in experiment [1] is 8.74; in experiment [2], under 6.66.

Regarding `Cc1cc(C#Cc2cccnc2)cc(C)c1Oc1ccnc(Nc2ccc(C#N)cc2)n1`, the pEC50 is 6.03 in experiment [3], 8.52 in experiment [4], 8.00 in experiment [5] and 7.66 in experiment [6].
